Measurements as given in ChEMBL document CHEMBL1201862, “PubChem BioAssay data set” (2004).
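Values below derive from 48-hour exposures of cells grown in 96-well plates, with endpoints linearly interpolated between the two concentrations bracketing the appropriate inhibition level. The concentration for 50% growth inhibition is given as GI50.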 Activity calls are given as the source filed them. Rule as the data show it: active = GI50 up to about 1.1 µM and inactive = higher.

Legend:
Test in all cases: NCI-60 cell line screen, 48 h
[1] = system: DLD-1
[2] = system: Malme-3M
[3] = system: RPMI-8226
[4] = system: SF-539
[5] = system: SNB-19
[6] = system: IGROV-1
[7] = system: SK-MEL-5
[8] = system: TK-10
[9] = system: HCT-15
[10] = system: HOP-62
[11] = system: NCI-H23
[12] = system: M19-MEL
[13] = system: SW-620
[14] = system: NCI-H460
[15] = system: HOP-92
[16] = system: EKVX
[17] = system: LOX IMVI
[18] = system: CCRF-CEM
[19] = system: U-251
[20] = system: KM-20L2
[21] = system: A549
[22] = system: SK-MEL-28
[23] = system: MOLT-4
[24] = system: LXFL 529
[25] = system: OVCAR-5
[26] = system: XF498
[27] = system: A498
[28] = system: KM12
[29] = system: SK-OV-3
[30] = system: HT-29
[31] = system: SR
[32] = system: K562
[33] = system: UO-31
[34] = system: OVCAR-8
[35] = system: SF-268
[36] = system: HOP-18
[37] = system: SK-MEL-2
[38] = system: CAKI-1
[39] = system: DMS-114
[40] = system: SF-295
[41] = system: OVCAR-3
[42] = system: HCT-116
[43] = system: UACC-62
[44] = system: DMS-273
[45] = system: 786-0
[46] = system: HL-60
[47] = system: M14
[48] = system: SNB-78
[49] = system: UACC-257
[50] = system: NCI-H522
[51] = system: RXF 393
[52] = system: NCI-H226
[53] = system: SNB-75
[54] = system: COLO 205
[55] = system: SN12C
[56] = system: OVCAR-4
[57] = system: HCC 2998
[58] = system: ACHN
[59] = system: MCF7
[60] = system: NCI/ADR-RES

NCCCCC(=O)c1cccnc1
GI50 [1]: > 100 µM (inactive)
GI50 [2]: > 100 µM (inactive)
GI50 [3]: > 100 µM (inactive)
GI50 [4]: > 100 µM (inactive)
GI50 [5]: > 100 µM (inactive)
GI50 [6]: > 100 µM (inactive)
GI50 [7]: > 100 µM (inactive)
GI50 [8]: > 100 µM (inactive)
GI50 [9]: > 100 µM
GI50 [10]: > 100 µM (inactive)
GI50 [11]: > 100 µM (inactive)
GI50 [12]: > 100 µM (inactive)
GI50 [13]: > 100 µM (inactive)
GI50 [14]: > 100 µM (inactive)
GI50 [15]: > 100 µM (inactive)
GI50 [16]: > 100 µM (inactive)
GI50 [17]: > 100 µM (inactive)
GI50 [18]: > 100 µM (inactive)
GI50 [19]: > 100 µM (inactive)
GI50 [20]: > 100 µM (inactive)
GI50 [21]: > 100 µM (inactive)
GI50 [22]: > 100 µM (inactive)
GI50 [23]: > 100 µM (inactive)
GI50 [24]: > 100 µM (inactive)
GI50 [25]: > 100 µM (inactive)
GI50 [26]: > 100 µM (inactive)
GI50 [27]: > 100 µM (inactive)
GI50 [28]: > 100 µM (inactive)
GI50 [29]: > 100 µM (inactive)
GI50 [30]: > 100 µM (inactive)
GI50 [31]: > 100 µM (inactive)
GI50 [32]: > 100 µM (inactive)
GI50 [33]: > 100 µM (inactive)
GI50 [34]: > 100 µM (inactive)
GI50 [35]: > 100 µM (inactive)
GI50 [36]: > 100 µM (inactive)
GI50 [37]: > 100 µM (inactive)
GI50 [38]: > 100 µM (inactive)
GI50 [39]: > 100 µM (inactive)
GI50 [40]: > 100 µM (inactive)
GI50 [41]: > 100 µM (inactive)
GI50 [42]: > 100 µM (inactive)
GI50 [43]: > 100 µM (inactive)
GI50 [44]: > 100 µM (inactive)
GI50 [45]: > 100 µM (inactive)
GI50 [46]: > 100 µM (inactive)
GI50 [47]: > 100 µM (inactive)
GI50 [48]: > 100 µM (inactive)
GI50 [49]: > 100 µM (inactive)
GI50 [50]: > 100 µM (inactive)

O=C(Cc1nc2sc3c(c2c(=O)[nH]1)CCCC3)Nc1ccccc1
GI50 [2]: > 100 µM (inactive)
GI50 [3]: > 100 µM (inactive)
GI50 [4]: 73.6 µM (inactive)
GI50 [5]: 81.8 µM (inactive)
GI50 [6]: > 100 µM (inactive)
GI50 [7]: > 100 µM (inactive)
GI50 [8]: > 100 µM (inactive)
GI50 [51]: 15.5 µM (inactive)
GI50 [52]: > 100 µM (inactive)
GI50 [53]: 25.1 µM (inactive)
GI50 [9]: > 100 µM
GI50 [10]: > 100 µM (inactive)
GI50 [54]: > 100 µM (inactive)
GI50 [11]: > 100 µM (inactive)
GI50 [12]: > 100 µM (inactive)
GI50 [13]: > 100 µM (inactive)
GI50 [14]: > 100 µM (inactive)
GI50 [15]: > 100 µM (inactive)
GI50 [16]: > 100 µM (inactive)
GI50 [17]: > 100 µM (inactive)
GI50 [18]: > 100 µM (inactive)
GI50 [19]: > 100 µM (inactive)
GI50 [20]: > 100 µM (inactive)
GI50 [21]: > 100 µM (inactive)
GI50 [22]: > 100 µM (inactive)
GI50 [23]: > 100 µM (inactive)
GI50 [24]: > 100 µM (inactive)
GI50 [55]: > 100 µM (inactive)
GI50 [56]: > 100 µM (inactive)
GI50 [25]: > 100 µM (inactive)
GI50 [26]: > 100 µM (inactive)
GI50 [27]: > 100 µM (inactive)
GI50 [28]: > 100 µM (inactive)
GI50 [29]: 43.5 µM (inactive)
GI50 [30]: > 100 µM (inactive)
GI50 [32]: > 100 µM (inactive)
GI50 [34]: > 100 µM (inactive)
GI50 [35]: > 100 µM (inactive)
GI50 [36]: > 100 µM (inactive)
GI50 [37]: > 100 µM (inactive)
GI50 [38]: > 100 µM (inactive)
GI50 [39]: > 100 µM (inactive)
GI50 [57]: > 100 µM (inactive)
GI50 [40]: > 100 µM (inactive)
GI50 [41]: > 100 µM (inactive)
GI50 [42]: > 100 µM (inactive)
GI50 [43]: > 100 µM (inactive)
GI50 [44]: > 100 µM (inactive)
GI50 [45]: 71.1 µM (inactive)
GI50 [46]: > 100 µM (inactive)
GI50 [47]: > 100 µM (inactive)
GI50 [58]: > 100 µM (inactive)
GI50 [50]: > 100 µM (inactive)

c1ccc2c(c1)SCCc1cn[nH]c1-2
GI50 [1]: > 100 µM (inactive)
GI50 [2]: > 100 µM (inactive)
GI50 [4]: > 100 µM (inactive)
GI50 [59]: > 100 µM (inactive)
GI50 [5]: > 100 µM (inactive)
GI50 [6]: > 100 µM (inactive)
GI50 [7]: > 100 µM (inactive)
GI50 [51]: > 100 µM (inactive)
GI50 [52]: 24.7 µM (inactive)
GI50 [60]: > 100 µM (inactive)
GI50 [53]: > 92.5 µM (inactive)
GI50 [9]: > 100 µM
GI50 [10]: > 100 µM (inactive)
GI50 [54]: > 100 µM (inactive)
GI50 [11]: > 100 µM (inactive)
GI50 [12]: > 100 µM (inactive)
GI50 [13]: > 100 µM (inactive)
GI50 [14]: > 100 µM (inactive)
GI50 [15]: > 73.5 µM (inactive)
GI50 [16]: > 100 µM (inactive)
GI50 [17]: > 100 µM (inactive)
GI50 [18]: > 100 µM (inactive)
GI50 [19]: > 100 µM (inactive)
GI50 [20]: > 100 µM (inactive)
GI50 [21]: > 100 µM (inactive)
GI50 [22]: > 100 µM (inactive)
GI50 [23]: > 100 µM (inactive)
GI50 [55]: > 100 µM (inactive)
GI50 [56]: > 100 µM (inactive)
GI50 [25]: > 100 µM (inactive)
GI50 [26]: > 100 µM (inactive)
GI50 [27]: > 100 µM (inactive)
GI50 [28]: > 100 µM (inactive)
GI50 [29]: > 100 µM (inactive)
GI50 [30]: > 100 µM (inactive)
GI50 [32]: > 100 µM (inactive)
GI50 [33]: > 100 µM (inactive)
GI50 [34]: > 100 µM (inactive)
GI50 [35]: > 100 µM (inactive)
GI50 [36]: > 100 µM (inactive)
GI50 [37]: > 100 µM (inactive)
GI50 [38]: > 100 µM (inactive)
GI50 [39]: > 100 µM (inactive)
GI50 [57]: > 100 µM (inactive)
GI50 [40]: > 100 µM (inactive)
GI50 [41]: > 100 µM (inactive)
GI50 [42]: > 100 µM (inactive)
GI50 [43]: > 100 µM (inactive)
GI50 [44]: > 100 µM (inactive)
GI50 [46]: > 100 µM (inactive)
GI50 [48]: > 100 µM (inactive)
GI50 [49]: > 100 µM (inactive)
GI50 [50]: > 100 µM (inactive)
